PubChem BioAssay AID1361 (SRMLSC, 2008)
Calls of active or inactive are those of the source. No rule for the calls is given here.

Assay: blockers of mitochondrial fusion, WT vs mutant – cell-based, chemical genetic, wild-type and mutant, confirmation (AID 1361)
Conditions: Cell-based mitochondrial fusion phenotype, imaging
[1] = mutant cells, measured here: mutant cell line IC50

| SMILES | IC50 (WT cells) | IC50 [1] [µM] |
| --- | --- | --- |
| Cc1ccc(C2CN(C)C3(C(=O)Nc4ccccc43)C23COc2ccccc2C3=O)cc1 (centres undefined) | 11 µM | 23.7 |
| COc1cccc(C2Nc3c(F)cc(Br)cc3C3C=CCC32)c1OC (centres undefined) | 14.9 µM | > 25 |
| COc1ccc(NC(=O)CSc2ccc3c(c2)OCCO3)cc1OC | > 25 µM (inactive) | > 25 |
| N#CCc1ccc(NS(=O)(=O)c2ccc(C3CCCCC3)cc2)cc1 | 22.8 µM | > 25 |
| CC(C)C1OC(c2cccc(NC(=O)c3cccs3)c2)OCC1(C)C (centres undefined) | > 25 µM (inactive) | > 25 |
| CCOc1ccc(NC(=S)NN(C)C(=S)Nc2ccc(OCC)cc2)cc1 | > 25 µM (inactive) | > 25 |
| O=C(Nc1ccc(Cl)c(Cl)c1)c1ccc(Cn2cc(Cl)cn2)cc1 | 8.52 µM | 18.6 |
| CCc1nnc(NC(=O)C2Cc3ccccc3CN2S(=O)(=O)c2ccc(C)cc2)s1 (centres undefined) | > 25 µM (inactive) | > 25 |
| CCOC(=O)C1=C(C)NC(SC(C)=O)=NC1c1ccc(OC(C)=O)c(OC)c1 (centres undefined) | > 25 µM (inactive) | > 25 |
| O=[N+]([O-])c1ccc(/C=N/Nc2nc(N3CCCCCC3)nc(N3CCCCCC3)n2)o1 | 8.58 µM | > 25 |
| O=C(CCCCCn1c(=S)[nH]c2cc3c(cc2c1=O)OCO3)N1CCN(C(=O)c2ccco2)CC1 | > 25 µM (inactive) | > 25 |
| CCSc1ccc2cc(OC)ccc2[n+]1CC | 23.1 µM | > 25 |
| CN(C)S(=O)(=O)c1cccc(C(=O)NCC2CCCO2)c1 (centres undefined) | > 25 µM (inactive) | > 25 |
| CCCn1nnc(NC(=O)c2ccc(-c3cccc(Cl)c3)o2)n1 | > 25 µM (inactive) | > 25 |
| Cc1cc(C)nc(NC2=NCC(=O)N2c2ccc3c(c2)OCCO3)n1 | > 25 µM (inactive) | > 25 |
| Cc1cc(C(=O)Nn2c(C3CCCCC3)nc3ccccc3c2=O)ccc1[N+](=O)[O-] | 16.7 µM | > 25 |
| COc1ccccc1C1(CCNS(=O)(=O)c2ccc(C)cc2)CCOC(C(C)C)C1 (centres undefined) | 21 µM | > 25 |
| O=C(NC(=S)Nc1ccccc1N1CCCCC1)c1ccco1 | > 25 µM (inactive) | 23 |
| S=C1NC(C23CC4CC(CC(C4)C2)C3)=CC(c2ccc3c(c2)OCO3)N1 (centres undefined) | 4.6 µM | > 25 |
| CCn1nccc1C(=O)Nc1ccc(S(=O)(=O)NC23CC4CC(CC(C4)C2)C3)cc1 | > 25 µM (inactive) | > 25 |
| Cc1ccc(O)c(C(=O)/C=C/c2ccc3c(c2)OCCCO3)c1 | 12.3 µM | > 25 |

| SMILES | IC50 (WT cells) | IC50 [1] [µM] |
| --- | --- | --- |
| CCC(C)Nc1c([N+](=O)[O-])cc(C)cc1[N+](=O)[O-] (centres undefined) | > 25 µM (inactive) | > 25 |
| c1ccc2c(-c3c[nH]c4ccccc34)c3ccccc3nc2c1 | 15.3 µM | > 25 |
| O=C(NCCCN1CCOCC1)c1ccccc1-c1ccccc1 | > 25 µM (inactive) | > 25 |
| COc1ccc(CCn2nnnc2C(CC(C)C)N2CCN(c3ncccn3)CC2)cc1OC (centres undefined) | > 25 µM (inactive) | > 25 |
| COC(=O)CCC(=O)COc1ccc(OC)cc1C#N | > 25 µM (inactive) | > 25 |
| Cc1nn(-c2ccccc2)c(C)c1NC(=O)c1ccc(S(=O)(=O)N2CCCC2)cc1 | > 25 µM (inactive) | > 25 |
| COc1ccc(-c2[nH]c(-c3cc(OC)c4c(c3)OCO4)nc2-c2ccccc2)cc1 | 12.6 µM | > 25 |
| CCCCC(c1nnnn1CC1CCCO1)N1CCN(c2cc(Cl)ccc2C)CC1 (centres undefined) | 21.6 µM | > 25 |
| CC(C)N1C(=S)SC(C)(C)C1n1oc(=O)n(-c2ccc(Cl)c(Cl)c2)c1=O (centres undefined) | > 25 µM (inactive) | > 25 |
| Cc1ncsc1C(=O)Nc1nc2c(s1)CC(C)CC2 (centres undefined) | > 25 µM (inactive) | > 25 |
| CCOc1ccccc1N1CCN(C(=S)NC(=O)C23CC4CC(CC(C4)C2)C3)CC1 | 19.5 µM | 22.5 |
| Cc1ccccc1C(=O)Oc1ccc(Sc2ccc(O)cc2)cc1 | 8.72 µM | > 25 |
| O=C(OCc1nnc(-c2ccccc2)o1)C12CC3CC(CC(Br)(C3)C1)C2 | 24.1 µM | > 25 |
| CC1CCN(C(C)C(=O)Nc2ccccc2-c2ccccc2)CC1 (centres undefined) | > 25 µM (inactive) | > 25 |
| Cc1cccc(N2CCN(C(c3ccccc3)c3nnnn3C(C)(C)C)CC2)c1C (centres undefined) | 9.14 µM | > 25 |
| CCOC(=O)c1c(-c2cccs2)csc1NC(=O)C(C)(C)C | 24.5 µM | > 25 |
| CCCNC(=O)c1ccccc1NC(=O)CSCc1ccc(OC)cc1 | > 25 µM (inactive) | > 25 |
| Nc1ccc2nc(CN3CCOCC3)[nH]c2c1 | > 25 µM (inactive) | > 25 |
| CC1CCN(c2nc(Cl)nc(Nc3ccc([N+](=O)[O-])cc3)n2)CC1 | 7.41 µM | > 25 |
| O=[N+]([O-])c1cc(C(F)(F)F)ccc1NCCc1c[nH]c2ccccc12 | 13.4 µM | 18.9 |
| CCOC(=O)C1=C(C)C(c2cccc(Oc3ccccc3)c2)NC(=S)N1 (centres undefined) | > 25 µM (inactive) | > 25 |

| SMILES | IC50 (WT cells) | IC50 [1] [µM] |
| --- | --- | --- |
| Cc1ccc(C(=O)Nc2nc(-c3ccccc3)c(-c3ccccc3)o2)cc1 | 4.97 µM | 9.35 |
| Cc1nc2c(ccc3nc(NC(=O)Cc4ccccc4)sc32)s1 | 12.4 µM | > 25 |
| Cc1ccc(C2=CC(C)(c3ccc(C)cc3)Nc3nc(C(F)(F)F)nn32)cc1 (centres undefined) | 7.63 µM | > 25 |
| CCOC(=O)C1=NN(c2ccccc2)C2=NC(C)=C(C(=O)OC)C(c3ccc(C)cc3)N12 (centres undefined) | 8.75 µM | > 25 |
| Cn1c(Cc2ccccc2)nnc1SCC(=O)c1ccc(Br)s1 | > 25 µM (inactive) | > 12.5 |
| COC(=O)CN(c1ccc2c(c1)OCCO2)S(=O)(=O)c1ccccc1 | > 25 µM (inactive) | > 25 |
| Cc1oc(-c2ccccc2F)nc1CN1CCC(C(=O)NCCC2=CCCCC2)CC1 | > 25 µM (inactive) | > 25 |
| CC(C)=C1C2CCC1C(C(=O)Nc1sc(C)c(-c3ccc(C(C)C)cc3)c1C(N)=O)C2C(=O)O (centres undefined) | 20.8 µM | > 25 |
| Cc1sc(NC(=O)CSc2nnnn2C2CCCCC2)c(C#N)c1C | > 25 µM (inactive) | > 25 |
| C=CCn1c(C)c(C(C)=O)c(N2CCN(C(c3ccccc3)c3ccccc3)CC2)nc1=S | 13.3 µM | > 25 |
| CCC1=NN2C(=N)/C(=C\c3cccn3-c3ccc(C)cc3C)C(=O)N=C2S1 | 13.2 µM | > 25 |
| CC(c1ccccc1)N(CCC(c1ccccc1)C1CCOC(C)(C)C1)C(=O)c1ccco1 (centres undefined) | 19.2 µM | > 25 |
| O=C(Oc1cccnc1)c1ccc(Cl)c(Cl)c1 | > 25 µM (inactive) | > 25 |
| CC1CC(C)CN(C2CCN(Cc3cccnc3)CC2)C1 (centres undefined) | > 25 µM (inactive) | > 25 |
| CC(C)(C)c1ccc(CNc2ccc([N+](=O)[O-])cn2)cc1 | > 25 µM (inactive) | > 25 |
| COc1ccc(C2c3c(ncn(Cc4ccco4)c3=N)Oc3ccc4ccccc4c32)cc1 (centres undefined) | 13.4 µM | > 25 |
| Cc1ccc(NC(=S)N(CCCN2CCCC2)Cc2cccn2Cc2ccc(Cl)cc2)cc1C | 13.1 µM | > 25 |
| COc1ccc2ccc3c(c2c1)N=CC1(O3)N(C)c2ccccc2C1(C)C (centres undefined) | 6.02 µM | > 25 |
| Cc1ccc(-c2cc(-c3ccccc3)c(C#N)c(N)n2)o1 | > 25 µM (inactive) | > 25 |
| CCCCCCn1c(N2CCN(c3ccccc3)CC2)nc2c1c(=O)n(C)c(=O)n2C | 19.9 µM | > 25 |
| COc1cc(CNn2cn[nH]c2=S)cc(Br)c1OCc1ccccc1F | 19.7 µM | > 25 |

| SMILES | IC50 (WT cells) | IC50 [1] [µM] |
| --- | --- | --- |
| CC1=CN2C(=N)/C(=C/c3ccc(Sc4ccc(C)cc4)o3)C(=O)N=C2S1 | 7.68 µM | > 25 |
| CC(C)N=c1scc(-c2cccs2)n1/N=C/c1ccc(O)c(O)c1O | > 25 µM (inactive) | > 25 |
| CCc1ccc(C2=CC(c3cc(Br)ccc3F)n3ncnc3N2)cc1 (centres undefined) | 23.7 µM | > 25 |
| O=C(Nc1ccc(F)cc1)N1CC2CC(C1)c1cccc(=O)n1C2 (centres undefined) | > 25 µM (inactive) | > 25 |
| O=S(=O)(NCC(Nc1ccc(Cl)cc1)c1ccccc1)c1ccccc1 (centres undefined) | 13.9 µM | > 25 |
| CC(C)(O)[C@H]1O[C@H]2CC[C@@]3(C)[C@@](O)(CC[C@H]4Cc5c([nH]c6ccccc56)[C@@]43C)C2=CC1=O | 11.2 µM | > 25 |
| C(=N\Nc1nc(Nc2ccccc2)nc(Nc2ccccc2)n1)/c1cccnc1 | 20.9 µM | > 25 |
| N#Cc1sc2nc(N3CCCCC3)c3c(c2c1N)CCCC3 | 20.2 µM | > 25 |
| COc1ccc(-c2cn[nH]c2-c2ccc(OCc3ccc([N+](=O)[O-])cc3)cc2O)cc1 | 10 µM | > 25 |
| CCC(C)c1ccccc1NC(=O)COC(=O)c1ccc2[nH]c3c(c2c1)CCCC3 (centres undefined) | 9.98 µM | > 25 |
| O=C(c1csc(Nc2ccccc2Cl)n1)N1CCCC1 | > 25 µM (inactive) | > 25 |
| CCOc1c(OC(C)=O)ccc(/C=C/c2ccc3cccc(OC(C)=O)c3n2)c1[N+](=O)[O-] | > 25 µM (inactive) | > 25 |
| CCOC(=O)c1sc(NC(=O)Nc2cccc(Cl)c2)cc1C | 11.8 µM | > 25 |
| CCOc1ccccc1-n1c(CN2CCN(C(=O)c3ccco3)CC2)nc2ccccc2c1=O | > 25 µM (inactive) | > 25 |
| CCC(=O)Nc1ccc(Br)c(Cl)c1 | > 25 µM (inactive) | > 25 |
| Cc1cc(NC(=S)N(Cc2cccc(Br)c2)CC2CCC(C(=O)O)CC2)ccc1Cl (centres undefined) | 21.9 µM | > 25 |
| COc1ccccc1CNC(=O)c1ccccc1OCc1ccc(F)cc1 | 21.8 µM | > 25 |
| COC(=O)C1=C(C)N(C(C)c2ccccc2)C(=O)/C1=C\c1ccco1 (centres undefined) | 24.2 µM | > 25 |
| O=C(COC(=O)c1ccccc1Cc1ccccc1)Nc1ccc(SC(F)F)cc1 | 5.92 µM | > 25 |
